Measurements published in patent publication US9540391B2, “Isomannide derivatives as inhibitors of soluble epoxide hydrolase” (SANOFI, priority 2013, dated 2017).
Where a name gives a salt, the structure may show the parent alone.

Biological target: T1, recombinant sEH (Homo sapiens, UniProt P34913)
T1 construct: made in house; host or cells: Sf9 insect cells
T1 sequence (P34913 1-555): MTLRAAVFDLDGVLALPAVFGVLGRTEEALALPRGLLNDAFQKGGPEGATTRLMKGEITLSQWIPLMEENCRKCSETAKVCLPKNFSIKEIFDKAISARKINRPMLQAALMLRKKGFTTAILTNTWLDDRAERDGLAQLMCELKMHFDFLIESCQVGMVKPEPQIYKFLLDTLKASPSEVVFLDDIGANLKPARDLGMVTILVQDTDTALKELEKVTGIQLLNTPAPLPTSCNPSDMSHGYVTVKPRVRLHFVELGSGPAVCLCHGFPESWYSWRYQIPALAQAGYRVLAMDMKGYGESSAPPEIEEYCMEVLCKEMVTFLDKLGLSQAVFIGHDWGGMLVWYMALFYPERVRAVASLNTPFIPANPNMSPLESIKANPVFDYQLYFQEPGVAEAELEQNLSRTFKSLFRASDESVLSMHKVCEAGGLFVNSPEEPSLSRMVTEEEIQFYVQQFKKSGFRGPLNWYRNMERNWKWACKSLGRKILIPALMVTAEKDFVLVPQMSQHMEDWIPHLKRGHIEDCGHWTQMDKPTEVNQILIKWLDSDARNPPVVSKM
Assay: biochemical screening assay for inhibition of soluble epoxide hydrolase (fluorometric, Phome substrate)
Method in brief: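 Human sEH from Sf9 cells (2 nM final) was pre-incubated 15 min at 30 °C with compound (0.0001–10 μM), then reacted 60 min at 30 °C with 5 μM Phome in 25 mM Hepes/0.01% albumin. Fluorescence of released 6-methoxy-2-naphthaldehyde was read before substrate and at end; IC50 from % inhibition.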

| SMILES | IC50 [nM] |
| --- | --- |
| Cc1ncccc1O[C@H]1CO[C@H]2[C@@H]1OC[C@@H]2NC(=O)NC1CCC(F)(F)CC1 [Example 89, 1-(4,4-difluoro-cyclohexyl)-3-[(3S,3aR,6S,6aS)-6-(2-methyl-pyridin-3-yloxy)-hexahydro-furo[3,2-b]furan-3-yl]-urea] | 5 |
| O=C(Nc1cccc(F)c1)N[C@H]1CO[C@H]2[C@@H]1OC[C@@H]2C#Cc1ccccc1 [Example 294, 1-(3-Fluoro-phenyl)-3-((3S,3aR,6S,6aR)-6-phenylethynyl-hexahydro-furo[3,2-b]furan-3-yl)-urea] | 123 |
| O=C(NCCc1ccccc1)N[C@H]1CO[C@H]2[C@@H]1OC[C@@H]2/C=C\c1ccsc1 [Example 344, 1-Phenethyl-3-[(3S,3aR,6S,6aR)-6-((Z)-2-thiophen-3-yl-vinyl)-hexa-hydro-furo[3,2-b]furan-3-yl]-urea] | 42 |
| Cc1ncccc1O[C@H]1CO[C@H]2[C@@H]1OC[C@@H]2NC(=O)NC1CC2CC1C1CCCC21 (stereo partly drawn) [Example 262, 1-[(3S,3aR,6S,6aS)-6-(2-Methyl-pyridin-3-yloxy)-hexahydro-furo[3,2-b]furan-3-yl]-3-(octahydro-4,7-methano-inden-5-yl)-urea] | 2 |
| O=C(NC1CCCCC1)N[C@H]1CO[C@H]2[C@@H]1OC[C@@H]2Oc1cc(F)ccc1Cl [Example 131, 1-[(3S,3aR,6S,6aS)-6-(2-Chloro-5-fluoro-phenoxy)-hexahydro-furo[3,2-b]furan-3-yl]-3-cyclohexyl-urea] | 2 |
| CC(=O)Nc1ccc(O[C@H]2CO[C@H]3[C@@H]2OC[C@@H]3NC(=O)NC2CCCCC2)cc1 [Example 113, N-{4-[(3S,3aS,6S,6aR)-6-(3-Cyclohexyl-ureido)-hexahydro-furo[3,2-b]furan-3-yloxy]-phenyl}-acetamide] | 3 |
| Cc1cc(C)c(O[C@H]2CO[C@H]3[C@@H]2OC[C@@H]3NC(=O)NC2CCCCC2)cn1 [Example 39, 1-Cyclohexyl-3-[(3S,3aR,6S,6aS)-6-(4,6-dimethyl-pyridin-3-yloxy)-hexa-hydro-furo[3,2-b]furan-3-yl]-urea] | 2 |
| O=C(NC1CCCCC1)N[C@H]1CO[C@H]2[C@@H]1OC[C@@H]2Oc1cccc(Oc2ccccc2)c1 [Example 27, 1-Cyclohexyl-3-[(3S,3aR,6S,6aS)-6-(3-phenoxy-phenoxy)-hexahydro-furo[3,2-b]furan-3-yl]-urea] | 3 |
| O=C(NC1CCCCC1)N[C@H]1CO[C@H]2[C@@H]1OC[C@@H]2Oc1ccc(-n2cncn2)cc1 [Example 112, 1-Cyclohexyl-3-[(3S,3aR,6S,6aS)-6-(4-[1,2,4]triazol-1-yl-phenoxy)-hexahydro-furo[3,2-b]furan-3-yl]-urea; trifluoroacetate] | 1 |
| O=C(NC1CCCCC1)N[C@H]1CO[C@H]2[C@@H]1OC[C@@H]2C#Cc1ccc2c(c1)OCO2 [Example 281, 1-((3S,3aR,6S,6aR)-6-benzo[1,3]dioxol-5-ylethynyl-hexahydro-furo[3,2-b]furan-3-yl)-3-cyclohexyl-urea] | 75 |
| Cc1ncccc1O[C@H]1CO[C@H]2[C@@H]1OC[C@@H]2NC(=O)NC1CCN(C)C1=O (stereo partly drawn) [Example 252, 1-(1-Methyl-2-oxo-pyrrolidin-3-yl)-3-[(3S,3aR,6S,6aS)-6-(2-methyl-pyridin-3-yloxy)-hexahydro-furo[3,2-b]furan-3-yl]-urea] | 3520 |
| CC(C)(C)NC(=O)N[C@H]1CO[C@H]2[C@@H]1OC[C@@H]2Oc1ccc(F)cc1 [Example 149, 1-tert-Butyl-3-[(3S,3aR,6S,6aS)-6-(4-fluoro-phenoxy)-hexahydro-furo[3,2-b]furan-3-yl]-urea] | 2160 |
| Cc1ncccc1O[C@H]1CO[C@H]2[C@@H]1OC[C@@H]2NC(=O)NC1(C#N)CCOCC1 [Example 248, 1-(4-Cyano-tetrahydro-pyran-4-yl)-3-[(3S,3aR,6S,6aS)-6-(2-methyl-pyridin-3-yloxy)-hexahydro-furo[3,2-b]furan-3-yl]-urea] | 3500 |
| Cc1nc(-c2cccc(O[C@H]3CO[C@H]4[C@@H]3OC[C@@H]4NC(=O)NC3CCCCC3)c2)no1 [Example 129, 1-Cyclohexyl-3-{(3S,3aR,6S,6aS)-6-[3-(5-methyl-[1,2,4]oxadiazol-3-yl)-phenoxy]-hexahydro-furo[3,2-b]furan-3-yl}-urea] | 2 |
| O=C(NC1CCCCC1)N[C@H]1CO[C@H]2[C@@H]1OC[C@@H]2Sc1ncc(Cl)cn1 [Example 52, 1-[(3S,3aR,6S,6aS)-6-(5-Chloro-pyrimidin-2-ylsulfanyl)-hexahydro-furo[3,2-b]furan-3-yl]-3-cyclohexyl-urea] | 1 |
| Cc1ncccc1O[C@H]1CO[C@H]2[C@@H]1OC[C@@H]2NC(=O)NCc1cc(F)ccc1OC(F)(F)F [Example 279, 1-(5-Fluoro-2-trifluoromethoxy-benzyl)-3-[(3S,3aR,6S,6aS)-6-(2-methyl-pyridin-3-yloxy)-hexahydro-furo[3,2-b]furan-3-yl]-urea] | 1 |
| O=C(NC1CCCCC1)N[C@H]1CO[C@H]2[C@@H]1OC[C@@H]2Oc1cccc(-n2cnnc2)c1 [Example 30, 1-Cyclohexyl-3-[(3S,3aR,6S,6aS)-6-(3-[1,2,4]triazol-4-yl-phenoxy)-hexahydro-furo[3,2-b]furan-3-yl]-urea] | 2 |
| O=C(NCCc1ccccc1)N[C@H]1CO[C@@H]2[C@@H](CCc3ccccc3)CO[C@@H]21 [Example 371, 1-Phenethyl-3-((3S,3aR,6S,6aR)-6-phenethyl-hexahydro-furo[3,2-b]furan-3-yl)-urea] | 24 |
| Cc1cc(C)cc(NC(=O)NC2COC3C(CCc4ccsc4)COC23)c1 [Example 362, 1-(3,5-Dimethyl-phenyl)-3-[(3S,3aR,6R)-6-((S)-2-thiophen-3-yl-ethyl)-hexahydro-furo[3,2-b]furan-3-yl]-urea] | 9 |
| NC(=O)c1cccc(O[C@H]2CO[C@H]3[C@@H]2OC[C@@H]3NC(=O)NC2CCCCC2)c1 [Example 143, 3-[(3S,3aS,6S,6aR)-6-(3-Cyclohexyl-ureido)-hexahydro-furo[3,2-b]furan-3-yloxy]-benzamide] | 6 |
| Cc1ncccc1O[C@H]1CO[C@H]2[C@@H]1OC[C@@H]2NC(=O)NC1CCSCC1 [Example 228, 1-[(3S,3aR,6S,6aS)-6-(2-Methyl-pyridin-3-yloxy)-hexahydro-furo[3,2-b]furan-3-yl]-3-(tetrahydro-thiopyran-4-yl)-urea] | 9 |
| O=C(Nc1ccccc1)NC1COC2C(CCc3ccccc3)COC12 [Example 354, 1-[(3S,3aR,6R)-6-((S)-Phenethyl)-hexa-hydro-furo[3,2-b]furan-3-yl]-3-phenyl-urea] | 127 |
| Cc1nc(-c2ccc(O[C@H]3CO[C@H]4[C@@H]3OC[C@@H]4NC(=O)NC3CCCCC3)cc2)no1 [Example 121, 1-Cyclohexyl-3-{(3S,3aR,6S,6aS)-6-[4-(5-methyl-[1,2,4]oxadiazol-3-yl)-phenoxy]-hexahydro-furo[3,2-b]furan-3-yl}-urea] | 1 |
| O=C(NC1CCCCC1)N[C@H]1CO[C@H]2[C@@H]1OC[C@@H]2C#Cc1ccccn1 [Example 300, 1-Cyclohexyl-3-((3S,3aR,6S,-6aR)-6-pyridin-2-ylethynyl-hexahydro-furo[3,2-b]furan-3-yl)-urea; trifluoroacetate] | 19 |
| O=C(Nc1ccc2c(c1)CCC2)N[C@H]1CO[C@@H]2[C@@H](CCc3ccsc3)CO[C@@H]21 [Example 367, 1-Indan-5-yl-3-[(3S,3aR,6S,6aR)-6-(2-thiophen-3-yl-ethyl)-hexahydro-furo[3,2-b]furan-3-yl]-urea] | 12 |
| O=C(NC1CCCCC1)N[C@H]1CO[C@H]2[C@@H]1OC[C@@H]2Oc1ccc(N2CCOCC2)nc1 [Example 73, 1-Cyclohexyl-3-[(3S,3aR,6S,6aS)-6-(6-morpholin-4-yl-pyridin-3-yloxy)-hexahydro-furo[3,2-b]furan-3-yl]-urea] | 4 |
| Cc1ncccc1OC1COC2C(NC(=O)NC3CC4CCC3(C)C4(C)C)COC12 [Example 231, 1-[(2R,3aS,5S,6S)-6-(2-Methyl-pyridin-3-yloxy)-hexahydro-furo[3,2-b]furan-3-yl]-3-((1R,4R)-1,7,7-trimethyl-bicyclo[2.2.1]hept-2-yl)-urea] | 10 |
| O=C(Nc1ccc2c(c1)OCO2)N[C@H]1CO[C@H]2[C@@H]1OC[C@@H]2C#Cc1ccccc1 [Example 293, 1-Benzo[1,3]dioxol-5-yl-3-((3S,3aR,6S,6aR)-6-phenylethynyl-hexahydro-furo[3,2-b]furan-3-yl)-urea] | 71 |
| Cc1ncccc1O[C@H]1CO[C@H]2[C@@H]1OC[C@@H]2NC(=O)N[C@H]1C[C@H]2C[C@@H]([C@@H]1C)C2(C)C [Example 186, 1-[(3S,3aR,6S,6aS)-6-(2-Methyl-pyridin-3-yloxy)-hexahydro-furo[3,2-b]furan-3-yl]-3-((1S,2S,3S,5R)-2,6,6-trimethyl-bicyclo[3.1.1]hept-3-yl)-urea] | 2 |
| Cc1ncccc1O[C@H]1CO[C@H]2[C@@H]1OC[C@@H]2NC(=O)NC(C)(C)COC(C)(C)C [Example 226, 1-(2-tert-Butoxy-1,1-dimethyl-ethyl)-3-[(3S,3aR,6S,6aS)-6-(2-methyl-pyridin-3-yloxy)-hexahydro-furo[3,2-b]furan-3-yl]-urea] | 475 |
